Measurements as given in US20230233500A1, “Gasdermin D (GSDMD) Succination for the Treatment of Inflammatory Disease” (University of Massachusetts, priority 2020, published 2023).
Structures can show the parent of a compound that is named as a salt.

Experiments:
Type in all cases: cell-based, mouse
GAPDH target gene iNos = test: QPCR/immunoblot of iNos in BMDMs; conditions: WT BMDMs, HA 1 μM 1 hour, LPS 3 or 6 hours
Method: (§1) FIGS. 7A-K. Fumarate regulates pyroptosis independently of NRF2 and GAPDH. (A-B) Kinetic cell death data of WT primary BMDMs treated with LPS for 2 hours, DMSO (vehicle) or fumarate (25 μM) or heptilidic acid (HA) (0.5 μM or 1 μM) (A) or ML385 (1 μM) (B) followed by nigericin (10 μM) for 6 hours. (C-D) LDH (C) and IL-1B (D) release from WT primary BMDMs treated with LPS for 2 hours, DMSO (vehicle) or fumarate (25 μM) for 1 hour, HA or ML385 (1 μM) for 1 hour followed by nigericin (10 μM) or 1 hour. (E-F) Immunoblot analysis of GSDMD in cell lysates from WT BMDMs treated as in (B) with the indicated inhibitors. (G-H) QPCR (G) and immunoblot (H) analysis of iNos in WT BMDMs treated with DMSO (vehicle) or HA (1 μM) for 1 hour and LPS for 3 (G) or 6 (H) hours. (I) QPCR analysis of Hmox1 mRNA in WT BMDMs treated with DMSO (vehicle) or ML385 (1 μM) for 3 hours. (J-K) LDH assay (J) and immunoblot analysis of GSDMD (K) in WT BMDMs transfected with control non-targeting siRNA or NRF2-specific siRNAs (50 nM) for 48 hours followed by treatment with LPS for 2 hours, DMSO (vehicle) or fumarate (25 μM) and nigericin (10 μM) or 1 hour. A, B, E, F, H, K representative images from 3 independent experiments. C, D, G, I, K pooled data from 3 independent experiments. *, P<0.01, ****, P<0.00001 (Two-way ANOVA). Error bars show means±SD (A, B) or SEM (C, D, G, I, J).

[1] = system: Bone marrow-derived macrophages (BMDMs); test: LPS-nigericin inflammasome activation/pyroptosis in BMDMs; conditions: for LPS-Nig-induced release of LDH / LPS-Nig-induced release of IL-1β / kinetic cell death / formation of GSDMD-N: WT BMDMs; for LPS-Nig-induced release of LDH / LPS-Nig-induced release of IL-1β / LPS-Nig induced pyroptosis (inhibitory effect): LPS 2 hr; for LPS-Nig-induced release of LDH / LPS-Nig-induced release of IL-1β: compound 1 hour (fumarate 25 μM), then nigericin; for LPS-Nig-induced release of IL-1β: ELISA; for kinetic cell death / formation of GSDMD-N: LPS-Nig; for kinetic cell death: SYTOX orange, 0-6 hrs; for formation of GSDMD-N: immunoblot; for LPS-Nig induced pyroptosis (inhibitory effect): BMDMs, compound 25 μM 1 hour, nigericin
Method: Human kidney cell line HEK293T was cultured in Dulbecco's modified Eagle's medium supplemented with 10% (v/v) fetal bovine serum, 100 U/ml penicillin and 100 µg/ml streptomycin. Human peripheral blood monocyte cell line, THP1 cells were cultured in RPMI-1640 medium supplemented with 10% (v/v) fetal bovine serum, 100 U/ml penicillin and 100 µg/ml streptomycin. For isolation of BMDMs, tibias and femurs were removed from wild type and GsdmD^−/− mice and bone marrow was flushed with complete DMEM-medium. Cells were plated in medium containing 20% (v/v) conditioned medium of L929 mouse fibroblasts cultured for 7 days at 37° C. in a humidified atmosphere of 5% C02. Medium was replaced every 3 days.
Conditioned media or serum was collected as indicated and IL-1β or TNF-α, were quantified by sandwich ELISA (R&D Systems).
Cells were plated, treated and incubated in phenol red free medium. Following treatment medium was collected and assessed for LDH release using the CytoTox96 non-radioactive cytotoxicity assay (Promega) as per manufacturer's instructions. Kinetic cell death assays were performed using SytoxOrange and the Biotek Cytation5.
For noncanonical inflammasome activation, cells were primed with […] Pam3CSK4 (Invivogen) for 2 h, followed by transfection of LPS (2 μg/ml) using Lipofectamine 2000 for 16 hours.
Primary BMDMs from WT or GsdmD^−/− mice were cultured in 12-well plates (1×10^6 cells per ml; 1 ml) or 10 cm dishes (2×10^6 cells per ml; 10 ml). HEK293T cells (2.5×10^5 cells per ml; 3 ml) were cultured in 6-well plates and transfected with FLAG-tagged GSDMD constructs where indicated. For cell lysate analysis cells were lysed directly in 1× Lamelli sample buffer. For native gel analysis cells were lysed in NP-40 lysis buffer (50 mM Tris-HCl, pH 7.4, containing 150 mM NaCl, 0.5% (w/v) IgePal, 50 mM NaF, 1 mM Na3VO4, 1 mM dithiothreitol, 1 mM phenylmethylsulfonyl fluoride and protease inhibitor cocktail. For immunoprecipitation of GSDMD, cells were treated as indicated and then collected in 500 μl RIPA buffer, followed by incubation for 15 min on ice. Lysates were incubated with GSDMD antibody and protein A-protein G-agarose was added to each sample, followed by incubation overnight at 4° C. Immunoprecipitates were collected by centrifugation and washed four times with 1 ml of RIPA buffer. Immunprecipates were eluted from beads using 1× sample buffer. Samples were resolved by SDS-PAGE and stained using simply blue safe stain or transferred to nitrocellulose membranes and analyzed by immunoblot. Immunoreactivity was visualized by the Odyssey Imaging System (LICOR Biosciences). For immunoblotting of IL-1β in cell supernatants, conditioned medium was collected and filtered using filter spin columns to reduce salt and remove abundant serum proteins. Filtrates were added to 4×SDS-PAGE sample buffer and resolved by SDS-PAGE for immunoblot analysis. GSDMD (ab209845) and GSDME antibodies were from abcam (ab215191). Caspase 1 antibody was from adipogen. Fumarase antibody was from cell signalling and anti-β-actin (AC-15; A1978) were from Sigma; anti-mouse IRDye™ 680 (926-68070) and anti-rabbit IRDye™ 800 (926-32211) were from LI-COR Biosciences.
Numerous studies have shown that cell metabolism impacts inflammatory responses. LPS activated macrophages switch from oxidative phosphorylation to aerobic glycolysis. Krebs cycle intermediates such as succinate and itaconate accumulate and moonlight as positive and negative regulators of inflammatory gene expression (3-8). To determine if Krebs cycle intermediates modulate pyroptosis, we tested their effect on inflammasome responses. Bone marrow-derived macrophages (BMDMs) were primed with LPS (2 hr) before being exposed to metabolites and then exposed to nigericin (Nig) and inflammasome activation/pyroptosis measured. The metabolites were added after LPS to avoid any impact on transcription. […] Fumarate impaired kinetic cell death (0-6 hrs) (FIG. 1E, FIG. 5A). […]

NRF2 target gene Hmox1 = test: QPCR of Hmox1 mRNA in BMDMs; conditions: WT BMDMs, ML385 1 μM 3 hours
Method: as §1

In the case of `CC(C)[C@H]1CC[C@@]2(CO2)[C@H]2C(=O)OCC(C(=O)O)=C[C@H]12` [Heptilidic acid], the “expression of GAPDH target gene iNos” value (GAPDH target gene iNos) is reported as “inhibited”, the “LPS-Nig-induced release of LDH” value [1] is reported as “no impact” and the “LPS-Nig-induced release of IL-1β” value [1] is reported as “no impact”. The kinetic cell death [1] was “no impact” and the “formation of GSDMD-N” value [1] was “no impact”.

In the case of `Cc1ccccc1C(=O)N1CCc2cc(-c3nc(NC(=O)Cc4ccc5c(c4)OCO5)sc3C)ccc21` [ML385], the “expression of NRF2 target gene Hmox1” value (NRF2 target gene Hmox1) is reported as “inhibited”, the “LPS-Nig-induced release of LDH” value [1] is reported as “no impact” and the “LPS-Nig-induced release of IL-1β” value [1] is reported as “no impact”. The kinetic cell death [1] was “no impact” and the “formation of GSDMD-N” value [1] was “no impact”.

`COC(=O)/C=C/C(=O)O` [MMF, Monomethyl fumarate] was tested, and the “LPS-Nig induced pyroptosis (inhibitory effect)” value [1] was “no inhibitory effect”.

In the case of `COC(=O)/C=C/C(=O)OCCN1C(=O)CCC1=O` [diroximel fumarate], the “LPS-Nig induced pyroptosis (inhibitory effect)” value [1] is reported as “blocked” and the “formation of GSDMD-N” value [1] is reported as “blocked”.

For `CCN(CC)C(=O)COC(=O)/C=C/C(=O)OC` [tepilamide fumarate], the “LPS-Nig induced pyroptosis (inhibitory effect)” value [1] was “blocked” and the “formation of GSDMD-N” value [1] was “blocked”.
